Assay results as given in US12247019B2 (Centaurus Therapeutics, priority 2018, dated 2025).

Target: T1, Des1 (Homo sapiens, UniProt O15121)
T1 sequence (O15121 1-323): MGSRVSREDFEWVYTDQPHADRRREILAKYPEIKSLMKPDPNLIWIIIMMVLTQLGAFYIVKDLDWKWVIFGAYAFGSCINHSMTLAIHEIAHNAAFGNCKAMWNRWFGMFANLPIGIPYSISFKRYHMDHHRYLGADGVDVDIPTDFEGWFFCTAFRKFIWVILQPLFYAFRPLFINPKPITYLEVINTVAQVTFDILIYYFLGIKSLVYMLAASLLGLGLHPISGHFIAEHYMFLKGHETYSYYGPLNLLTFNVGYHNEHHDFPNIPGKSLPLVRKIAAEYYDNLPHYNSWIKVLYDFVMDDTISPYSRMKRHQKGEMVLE
Assay: Jurkat T cell measurement of conversion of dihydroceramide to ceramide (Des1 activity, LC-MS/MS of NBD-C6-ceramide)
Assay type: cell-based
Design: endogenous in cells; host or cells: Jurkat clone E6-1
Details: Jurkat clone E6-1 cells, 10 μM NBD-C6-dihydroceramide, 3 hours at 37° C.; for inhibition at 0.5 µM: 0.5 uM compound, read-out: Des1 % Inhib (0.5 uM); for IC50: read-out: Des1 IC50
Method: Jurkat T Cell Measurement of Conversion of Dihydroceramide to Ceramide
Jurkat clone E6-1 cells were grown and then seeded at 10^6 cells/mL in a 96-well plate (400 μL in each well. The cells were administered 100 μL of cell culture media containing 50-μM NBD-C6-dihydroceramide (Des1 substrate), affording a final concentration of substrate of 10 μM. The cells were incubated with substrate at 4° C. for 30 minutes. Following the incubation at 4° C., the cell suspension was centrifuged at 1200 rpm for 3 minutes, and the cell pellet is resuspended in 400 μL of fresh media containing various concentrations of either fenretinide (known Des1 inhibitor control compound) or test article. The final concentrations of control compound and test compounds were tested in a range from 0-10 μM. The cells and compounds were incubated at 37° C. for 3 hours. Following the 3-hour incubation, the plate was centrifuged at 2500 g for 3 minutes at 4° C., followed by collection and transfer of 200 μL of the supernatant to a new 96-well plate with 300 μL of methanol an containing appropriate internal standards for liquid chromatography/tandem mass spectroscopy (LC/MS/MS) analysis (internal standard: 500 nM labetalol and 100 nM alprazolam). The samples were vortexed for 2 minutes followed by centrifugation at 3,220 g for 20 minutes. Following centrifugation, 200 μL of the supernatant was transferred to a new 96-well plate for LC-MS/MS analysis to determine the amount of NBD-C6-ceramide (Des1 product) produced. The assay was typically performed in duplicate. A reduction of at least 30% compared to vehicle control (0 μM test article) is indicative of an active compound, and a reduction of 75% compared to vehicle control is preferred.

Structure (SMILES)	inhibition at 0.5 µM [%]	IC50 [nM]
O=S(=O)(Nc1ccc(O)cn1)C1CCN(c2ccc(F)cc2)CC1 [Example 66, 1-(4-fluorophenyl)-N-(5-hydroxypyridin-2-yl)piperidine-4-sulfonamide]	72.1	
O=S(=O)(Nc1ccc(O)cn1)N1CCN(c2ccc(Cl)cc2)CC1 [Example 74, 4-(4-chlorophenyl)-N-(5-hydroxypyridin-2-yl)piperazine-1-sulfonamide]	72.8	
O=C(Nc1ccc(O)cn1)N1CCN(c2cnn(-c3ccccc3)c2)CC1 [Example 80, N-(5-hydroxypyridin-2-yl)-4-(1-phenyl-1H-pyrazol-4-yl)piperazine-1-carboxamide]	56.9	
O=C(Nc1ccc(O)cn1)N1CCN(c2ccccn2)CC1 [Example 17, N-(5-hydroxypyridin-2-yl)-4-(pyridin-2-yl) piperazine-1-carboxamide]	76.9	
O=C(Nc1ccc(O)cn1)N1CCN(c2cccc(F)n2)CC1 [Example 35, 4-(6-fluoropyridin-2-yl)-N-(5-hydroxypyridin-2-yl)piperazine-1-carboxamide]	91.3	3
O=C(Nc1ccc(O)cn1)OC1CCN(c2ccc(F)cc2F)CC1 [Example 54, 1-(2,4-difluorophenyl)piperidin-4-yl N-(5-hydroxypyridin-2-yl)carbamate]		5
O=C(Nc1ccc(O)cn1)N1CCCN(c2ccc(F)c(F)c2)CC1 [Example 87, 4-(3,4-difluorophenyl)-N-(5-hydroxypyridin-2-yl)-1,4-diazepane-1-carboxamide]	92.7	21
O=C(Nc1ccc(O)cn1)N1CCCCCC1 [Example 11, N-(5-hydroxypyridin-2-yl)azepane-1-carboxamide]	38.5	
CCCCCCOC(=O)Nc1ccc(O)cn1 [Example 41, Hexyl N-(5-hydroxypyridin-2-yl)carbamate]	95.1	13
O=C(Nc1ccc(O)cn1)N1CCN(c2cc(F)cc(F)c2)CC1 [Example 26, 4-(3,5-difluorophenyl)-N-(5-hydroxypyridin-2-yl)piperazine-1-carboxamide]		12
O=C(Nc1ccc(O)cn1)N1CCCN(c2ccc(C(F)(F)F)cn2)CC1 [Example 86, N-(5-hydroxypyridin-2-yl)-4-[5-(trifluoromethyl)pyridin-2-yl]-1,4-diazepane-1-carboxamide]	84.6	78
COc1ccc(N2CCN(C(=O)Nc3ccc(O)cn3)CC2)nc1 [Example 45, N-(5-hydroxypyridin-2-yl)-4-(5-methoxypyridin-2-yl)piperazine-1-carboxamide]		470
O=C(Nc1ccc(O)cn1)N1CCN(c2ccc(F)cc2)CC1 [Example 5, 4-(4-Fluorophenyl)-N-(5-hydroxypyridin-2-yl)piperazine-1-carboxamide]	91.5	32 to 51
O=C(OCc1ccccc1)N1CCC(S(=O)(=O)Nc2ccc(O)cn2)CC1 [Example 63, Benzyl 4-[(5-hydroxypyridin-2-yl)sulfamoyl]piperidine-1-carboxylate]		> 1000
O=C(Nc1ccc(O)cn1)N1CCN(Cc2ccc(F)cc2)CC1 [Example 38, 4-[(4-Fluorophenyl)methyl]-N-(5-hydroxypyridin-2-yl)piperazine-1-carboxamide]	91.5	60
O=C(Nc1ccc(O)cn1)N1CCC(c2ccccc2)CC1 [Example 1, N-(5-Hydroxypyridin-2-yl)-4-phenylpiperidine-1-carboxamide]	89.6	42
O=C(Nc1ccc(O)cc1)N1CCN(c2ccc(C(F)(F)F)cn2)CC1 [Example 31, N-(4-hydroxyphenyl)-4-[5-(trifluoromethyl)pyridin-2-yl]piperazine-1-carboxamide]		340
O=C(Nc1ccc(O)cn1)N[C@H]1CC[C@H](c2ccccc2)CC1 [Example 19, 3-(5-hydroxypyridin-2-yl)-1-[(1r,4r)-4-phenylcyclohexyl]urea]	76.7	

Structure (SMILES)	inhibition at 0.5 µM [%]	IC50 [nM]
CC(C)C1CCN(C(=O)Nc2ccc(O)cn2)CC1 [Example 9, N-(5-Hydroxypyridin-2-yl)-4-(propan-2-yl)piperidine-1-carboxamide]	93.8	17
N#Cc1ccc(N2CCN(C(=O)Nc3ccc(O)cn3)CC2)nc1 [Example 34, 4-(5-cyanopyridin-2-yl)-N-(5-hydroxypyridin-2-yl)piperazine-1-carboxamide]	85.4	
O=C(Nc1ccc(O)cn1)N1CCN(c2ccc(F)nc2)CC1 [Example 50, 4-(6-fluoropyridin-3-yl)-N-(5-hydroxypyridin-2-yl) piperazine-1-carboxamide]	83	
O=C(Nc1ccc(O)cn1)NC1CCN(c2ccc(F)cn2)CC1 [Example 49, 1-[1-(5-fluoropyridin-2-yl)piperidin-4-yl]-3-(5-hydroxypyridin-2-yl)urea]		130
O=C(Nc1ccc(O)cn1)NC1CCCN(c2ccc(Cl)cc2)C1 (stereo not drawn) [Example 48, 1-[1-(4-chlorophenyl)piperidin-3-yl]-3-(5-hydroxypyridin-2-yl)urea]	39.8	
O=C(Nc1ccc(O)cn1)N1CCN(c2cc(C(F)(F)F)ccn2)CC1 [Example 33, N-(5-hydroxypyridin-2-yl)-4-[4-(trifluoromethyl)pyridin-2-yl]piperazine-1-carboxamide]	93.1	7
O=C(Nc1ccc(O)cn1)N1CCN(c2ccc(F)cn2)CC1 [Example 24, 4-(5-fluoropyridin-2-yl)-N-(5-hydroxypyridin-2-yl)piperazine-1-carboxamide]		64 to 94
O=C(Nc1ccc(O)cn1)OC1CCN(c2ccccn2)CC1 [Example 59, 1-(pyridin-2-yl)piperidin-4-yl N-(5-hydroxypyridin-2-yl)carbamate]	93.2	43
O=S(=O)(Nc1ccc(O)cn1)C1CCN(c2ccc(C(F)(F)F)cc2)CC1 [Example 69, N-(5-hydroxypyridin-2-yl)-1-[4-(trifluoromethyl)phenyl]piperidine-4-sulfonamide]	95	40
O=C(Nc1ccc(O)cc1)N1CCN(c2ccc(F)cc2F)CC1 [Example 28, 4-(2,4-difluorophenyl)-N-(4-hydroxyphenyl)piperazine-1-carboxamide]	57.8	
CC(C)(C)c1ccc(S(=O)(=O)Nc2ccc(O)cn2)cc1 [Example 62, 4-tert-Butyl-N-(5-hydroxypyridin-2-yl)benzene-1-sulfonamide]	69.4	310
O=C(Nc1ccc(O)cn1)N1CCN(c2ccc(C(F)(F)F)cc2)CC1 [Example 14, N-(5-Hydroxypyridin-2-yl)-4-[4-(trifluoromethyl)phenyl]piperazine-1-carboxamide]	95.9	3
O=C(Nc1ccc(O)cn1)N1CCN(c2ccc(C(F)(F)F)cn2)CC1 [Example 18, N-(5-hydroxypyridin-2-yl)-4-[5-(trifluoromethyl)pyridin-2-yl]piperazine-1-carboxamide]	96.6	4
O=S(=O)(Nc1ccc(O)cn1)C1CCN(Cc2ccccc2)CC1 [Example 65, 1-benzyl-N-(5-hydroxypyridin-2-yl)piperidine-4-sulfonamide]		> 1000
O=C(Nc1ccc(O)cn1)N1CCN(c2cccc(C(F)(F)F)n2)CC1 [Example 36, N-(5-hydroxypyridin-2-yl)-4-[6-(trifluoromethyl)pyridin-2-yl]piperazine-1-carboxamide]	94.9	23
O=C(Nc1ccc(O)cn1)N1CCC(c2cccc(Cl)c2)CC1 [Example 7]	94	26
O=C(Nc1ccc(O)cn1)N1CCN(c2ccc(Cl)cn2)CC1 [Example 22, 4-(5-chloropyridin-2-yl)-N-(5-hydroxypyridin-2-yl)piperazine-1-carboxamide]		14
